Patent EP3807270B1, “NOVEL HETEROARYL HETEROCYCLYL COMPOUNDS FOR THE TREATMENT OF AUTOIMMUNE DISEASE” (F. Hoffmann-La Roche AG, priority 2018, dated 2019)

biological target: T1, CYP2D6 (Homo sapiens, UniProt P10635); assay: CYP inhibition assay in human liver microsome; assay type: in vitro ADME; settings: human liver microsomes, probe dextromethorphan, 10µM test compound, dextromethorphan substrate, <0: not or weak inhibitor, read-out: CYP 2D6 inhibition %@10µM
T1 construct: tissue BD-Gentest 452117; host or cells: human liver microsomes
In short: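 HLM mixed with CYP2D6 substrate, preincubated 10 min at 37 °C, started with NADPH regenerating system and run 10 min at 37 °C before acetonitrile quench. Metabolite measured by RapidFire MS/MS against D3-dextrorphan internal standard. % inhibition scaled between DMSO and concentrated-inhibitor controls.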

T1 sequence (P10635 whole entry): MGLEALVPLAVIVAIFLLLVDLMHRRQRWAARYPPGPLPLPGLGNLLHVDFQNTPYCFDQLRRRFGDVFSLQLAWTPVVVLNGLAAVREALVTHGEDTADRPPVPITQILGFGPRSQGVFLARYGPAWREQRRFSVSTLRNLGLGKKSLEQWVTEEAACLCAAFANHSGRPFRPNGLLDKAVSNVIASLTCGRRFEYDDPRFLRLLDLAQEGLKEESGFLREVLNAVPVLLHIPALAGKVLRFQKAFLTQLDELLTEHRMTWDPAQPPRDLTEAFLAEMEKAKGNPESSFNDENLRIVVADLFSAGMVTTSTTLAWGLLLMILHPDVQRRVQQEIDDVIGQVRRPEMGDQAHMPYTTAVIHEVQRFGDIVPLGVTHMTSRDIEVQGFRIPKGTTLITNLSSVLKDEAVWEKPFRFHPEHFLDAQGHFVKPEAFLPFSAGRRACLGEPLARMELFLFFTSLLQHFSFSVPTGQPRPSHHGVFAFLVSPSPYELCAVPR

SMILES	inhibition at 10 min, 10 µM [%]
C[C@@H]1CN(c2ccc(C#N)c3ncccc23)C[C@H](CN2CCN(c3ccc4c(c3)CNCC4)CC2)O1 [Example 9, 5-[(2R,6S)-2-methyl-6-[[4-(1,2,3,4-tetrahydroisoquinolin-7-yl)piperazin-1-yl]methyl]morpholin-4-yl]quinoline-8-carbonitrile]	-2.5
C[C@@H]1CN(c2ccc(C#N)c3ncccc23)C[C@H](CN2CCN(c3ccncc3)CC2)O1 [ER-888286, reference compound]	52.5

The remaining lines, values ahead:

inhibition at 10 min, 10 µM [%]	SMILES
2.5	C[C@@H]1CN(c2ccc(C#N)c3ncccc23)C[C@H](CN2CCN(c3cnc4c(c3)CNC4)CC2)O1 [Example 10, 5-[(2S,6R)-2-[[4-(6,7-dihydro-5H-pyrrolo[3,4-b]pyridin-3-yl)piperazin-1-yl]methyl]-6-methyl-morpholin-4-yl] quinoline-8-carbonitrile]
9.5	C[C@@H]1CN(c2ccc(C#N)c3nccnc23)C[C@H](CN2CCN(c3cc4c(cn3)CCN[C@H]4C)CC2)O1 (single isomer, unassigned) [Example 88]
-2.5	C[C@@H]1CN(c2ccc(C#N)c3nccnc23)C[C@H](CN2CCN(c3cc4c(cn3)CCN[C@@H]4C)CC2)O1 (single isomer, unassigned) [Example 87]

biological target: T2, hTLR9 (Homo sapiens, UniProt Q9NR96); assay: not given; set-up: host or cells: HEK; settings: data disclosed in US20150105370; read-out: HEK/hTLR9 IC50; cited from earlier work
T2 sequence (Q9NR96 26-1032): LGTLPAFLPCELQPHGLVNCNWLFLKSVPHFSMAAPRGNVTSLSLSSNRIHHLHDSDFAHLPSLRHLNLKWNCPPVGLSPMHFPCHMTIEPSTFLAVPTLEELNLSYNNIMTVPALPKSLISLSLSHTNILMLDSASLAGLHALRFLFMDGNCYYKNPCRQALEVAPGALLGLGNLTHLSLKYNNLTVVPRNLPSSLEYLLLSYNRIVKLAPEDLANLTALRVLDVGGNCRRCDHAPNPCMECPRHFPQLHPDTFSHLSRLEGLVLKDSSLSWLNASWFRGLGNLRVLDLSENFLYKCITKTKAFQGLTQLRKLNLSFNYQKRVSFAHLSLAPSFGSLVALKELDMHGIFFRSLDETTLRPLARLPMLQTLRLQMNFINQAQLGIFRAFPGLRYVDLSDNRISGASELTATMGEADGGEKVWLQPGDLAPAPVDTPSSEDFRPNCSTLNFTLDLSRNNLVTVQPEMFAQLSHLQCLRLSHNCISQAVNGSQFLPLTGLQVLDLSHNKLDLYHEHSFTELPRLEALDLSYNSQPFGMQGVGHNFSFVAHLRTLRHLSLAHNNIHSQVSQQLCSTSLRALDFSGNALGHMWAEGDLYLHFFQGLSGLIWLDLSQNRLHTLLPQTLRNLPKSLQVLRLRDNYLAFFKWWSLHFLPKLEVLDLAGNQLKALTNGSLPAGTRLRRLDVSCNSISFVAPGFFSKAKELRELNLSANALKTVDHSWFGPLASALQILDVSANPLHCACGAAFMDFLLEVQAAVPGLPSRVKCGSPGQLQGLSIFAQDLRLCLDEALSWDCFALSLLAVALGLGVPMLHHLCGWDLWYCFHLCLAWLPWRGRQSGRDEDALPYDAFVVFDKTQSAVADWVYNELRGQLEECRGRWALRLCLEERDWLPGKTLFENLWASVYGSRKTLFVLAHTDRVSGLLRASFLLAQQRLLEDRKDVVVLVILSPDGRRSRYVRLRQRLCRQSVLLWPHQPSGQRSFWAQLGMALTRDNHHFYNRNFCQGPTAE

SMILES	IC50 [µM]
C[C@@H]1CN(c2ccc(C#N)c3ncccc23)C[C@H](CN2CCN(c3ccncc3)CC2)O1 [ER-888286, reference compound]	> 2
